Laboratory results: patent publication US8143374B2, “Polypeptide derivatives of parathyroid hormone (PTH)” (The General Hospital Corporation, priority 2006, dated 2012)
Values joined by “and” are separate entries in the source; they are usually repeats but may differ in a detail not shown here. Equal entries are not always repeated. Where two headings read alike, the source gives them in different places. Where a SMILES comes first, the peptide text is derived from it. Where no end group is shown, it is not given here. [ ]: non-standard residue; d: D form. Apa = (S)-2-amino-4[(2-amino)pyrimidinyl]methylalanine; Phe(4-guanidino) = N=C(N)Nc1ccc(C[C@H](N)C(=O)O)cc1; Cha = N[C@@H](CC1CCCCC1)C(=O)O; Orn = NCCC[C@H](N)C(=O)O

Target: T1, PTHR-delNt (Homo sapiens, UniProt Q03431, DEL24-181)
T1 construct: expressed in transfected cells; host or cells: COS-7 cells, transient co-transfection; membranes prepared
T1 sequence (Q03431 with tags, fused parts or gaps DEL24-181): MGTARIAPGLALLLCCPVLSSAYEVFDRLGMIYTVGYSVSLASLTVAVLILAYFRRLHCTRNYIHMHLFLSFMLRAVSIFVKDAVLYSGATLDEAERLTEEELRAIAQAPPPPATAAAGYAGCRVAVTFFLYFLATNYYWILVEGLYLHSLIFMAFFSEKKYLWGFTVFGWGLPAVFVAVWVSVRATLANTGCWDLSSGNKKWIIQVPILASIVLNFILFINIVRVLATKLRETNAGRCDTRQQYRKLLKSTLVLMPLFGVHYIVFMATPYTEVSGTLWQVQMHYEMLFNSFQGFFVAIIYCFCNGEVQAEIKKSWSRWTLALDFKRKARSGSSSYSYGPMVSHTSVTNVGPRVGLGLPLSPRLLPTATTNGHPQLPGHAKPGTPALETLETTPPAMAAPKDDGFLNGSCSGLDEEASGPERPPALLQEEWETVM
Test: Competition binding in COS-7 cell membranes with 125I-[Aib1,3,M]PTH(1-15)NH2 tracer
Conditions: for IC50: COS-7 membranes cotransfected with negative-dominant Gαs; for reduction (alteration) of binding affinity for PTHR-delNt relative to parent peptide: versus the respective parent peptide
In short: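 IC50 from four-parameter logistic fitting of specific tracer binding, extrapolated to maximal [Aib1,3,M]PTH(1-15)NH2 inhibition when displacement was incomplete. Competitor peptides (3×10^−9 to 1×10^−5 M) and 125I-[Aib1,3,M]PTH(1-15)NH2 were incubated 90 min, 21 °C, with membranes (20 µg/well) of COS-7 cells expressing N-terminally truncated (Δ24–181) human PTHR with dominant-negative Gαs; 1×10^−6 M unlabeled tracer peptide defined non-specific binding.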

[1] = hPTH(1-31)NH2 analogs, read-out: PTHR-delNT (COS-7) IC50
[2] = [Ala1,Arg19]hPTH(1-31)NH2 analogs, read-out: PTHR-delNT (COS-7) IC50

Compound	IC50 [1] [µM]	reduction (alteration) of binding affinity for PTHR-delNt relative to parent peptide (COS-7 membranes)	further results
SVSEIQLMHNLGKHLNSMRRVAWLRKKLQDV-NH2 [Glu^19,22→Arg,Ala]	0.36 ± 0.019	–	–
AVSEIQLMHNLGKHLNSMRREEWLRKKLQDV-NH2 [Val^21→Glu]	–	about four-fold	IC50 (PTHR-delNT (COS-7) IC50, [Ala1,Arg19]hPTH(1-31)NH2 analogs): 1.61 µM
SVSEIQLMHNLGKHLNSMEEVEWLRKKLQDV [Arg^20→Glu]	14.7	less than three-fold	reduction (alteration) of binding affinity for PTHR-delNt relative to parent peptide (COS-7 membranes, listed as Arg^20 to Glu substitution in PTH(1-31)NH2): approximately four-fold reduction; IC50 [2]: 0.776 ± 0.38 µM
SVSEIQLMHNLGKHLNSMARVAWLRKKLQDV-NH2 [Glu^19,22→Ala,Ala]	0.619 ± 0.075	–	–
AVSEIQLMHNLGKHLNSMRRVEWERKKLQDV-NH2 [Leu^24→Glu]	–	less than three-fold	effect on binding to PTHR-delNt (in words) (COS-7 membranes): only mildly impaired binding to PTHR-delNt; IC50 [2]: 1.04 µM
SVSEIQLMHNLGKHLNSMEKVEWLRKKLQDV-NH2 [Arg^20→Lys]	7.11	–	–
CC[C@H](C)[C@H](NC(=O)[C@H](CCC(=O)O)NC(=O)[C@H](CO)NC(=O)[C@@H](NC(=O)[C@H](C)N)C(C)C)C(=O)N[C@@H](CCC(N)=O)C(=O)N[C@@H](CC(C)C)C(=O)N[C@@H](CCSC)C(=O)N[C@@H](Cc1c[nH]cn1)C(=O)N[C@@H](CC(N)=O)C(=O)N[C@@H](CC(C)C)C(=O)NCC(=O)N[C@@H](CCCCN)C(=O)N[C@@H](Cc1c[nH]cn1)C(=O)N[C@@H](CC(C)C)C(=O)N[C@@H](CC(N)=O)C(=O)N[C@@H](CO)C(=O)N[C@@H](CCSC)C(=O)N[C@@H](CCCNC(=N)N)C(=O)N[C@@H](CCCNC(=N)N)C(=O)N[C@H](C(=O)N[C@@H](CCC(=O)O)C(=O)N[C@@H](Cc1c[nH]c2ccccc12)C(=O)N[C@@H](CC(C)C)C(=O)N[C@@H](CCCNC(=N)N)C(=O)N[C@@H](CCCCN)C(=O)N[C@@H](CCCCN)C(=O)N[C@@H](CC(C)C)C(=O)N[C@@H](CCC(N)=O)C(=O)N[C@@H](CC1CCCCC1)C(=O)N[C@H](C(N)=O)C(C)C)C(C)C [Asp^30→Cha] (H-AVSEIQLMHNLGKHLNSMRRVEWLRKKLQ[Cha]V-NH2; N-terminus assumed)	–	–	IC50 [2]: 0.305 ± 0.126 µM
SVSEIQLMHNLGKHLNSMEAVEWLRKKLQDV-NH2 [Arg^20→Ala]	19.3	approximate five-fold reduction	–
SVSEIQLMHNLGKHLNSMRRVEWLRKKLQDV-NH2 [Glu^19→Arg]	1.23	–	–
SVSEIQLMHNLGKHLNSMERVEWLRKALQDV-NH2 [Lys^27→Ala]	7.29	–	–
SVSEIQLMHNLGKHLNSMARVEWLRKKLQDV-NH2 [Glu^19→Ala]	2.94	–	–
CC[C@H](C)[C@H](NC(=O)[C@H](CCC(=O)O)NC(=O)[C@H](CO)NC(=O)[C@@H](NC(=O)[C@@H](N)CO)C(C)C)C(=O)N[C@@H](CCC(N)=O)C(=O)N[C@@H](CC(C)C)C(=O)N[C@@H](CCSC)C(=O)N[C@@H](Cc1c[nH]cn1)C(=O)N[C@@H](CC(N)=O)C(=O)N[C@@H](CC(C)C)C(=O)NCC(=O)N[C@@H](CCCCN)C(=O)N[C@@H](Cc1c[nH]cn1)C(=O)N[C@@H](CC(C)C)C(=O)N[C@@H](CC(N)=O)C(=O)N[C@@H](CO)C(=O)N[C@@H](CCSC)C(=O)N[C@@H](CCC(=O)O)C(=O)N[C@@H](Cc1ccc(NC(=N)N)cc1)C(=O)N[C@H](C(=O)N[C@@H](CCC(=O)O)C(=O)N[C@@H](Cc1c[nH]c2ccccc12)C(=O)N[C@@H](CC(C)C)C(=O)N[C@@H](CCCNC(=N)N)C(=O)N[C@@H](CCCCN)C(=O)N[C@@H](CCCCN)C(=O)N[C@@H](CC(C)C)C(=O)N[C@@H](CCC(N)=O)C(=O)N[C@@H](CC(=O)O)C(=O)N[C@H](C(N)=O)C(C)C)C(C)C [Arg^20→Gph] (H-SVSEIQLMHNLGKHLNSME[Phe(4-guanidino)]VEWLRKKLQDV-NH2; N-terminus assumed)	2.05	–	–
AVSEIQLMHNLGKHLNSMRRVEWLREKLQDV-NH2 [Lys^26→Glu]	–	–	IC50 [2]: 0.832 ± 0.215 µM
SVSEIQLMHNLGKHLNSMERAEWLRKKLQDV-NH2 [Val^21→Ala]	5.69	–	–
SVSEIQLMHNLGKHLNSMERVEWLRKKLADV-NH2 [Gln^29→Ala]	1.93	–	–
SVSEIQLMHNLGKHLNSMERVEWARKKLQDV-NH2 [Leu^24→Ala]	8.76	only two-fold	–
CC[C@H](C)[C@H](NC(=O)[C@H](CCC(=O)O)NC(=O)[C@H](CO)NC(=O)[C@@H](NC(=O)[C@@H](N)CO)C(C)C)C(=O)N[C@@H](CCC(N)=O)C(=O)N[C@@H](CC(C)C)C(=O)N[C@@H](CCSC)C(=O)N[C@@H](Cc1c[nH]cn1)C(=O)N[C@@H](CC(N)=O)C(=O)N[C@@H](CC(C)C)C(=O)NCC(=O)N[C@@H](CCCCN)C(=O)N[C@@H](Cc1c[nH]cn1)C(=O)N[C@@H](CC(C)C)C(=O)N[C@@H](CC(N)=O)C(=O)N[C@@H](CO)C(=O)N[C@@H](CCSC)C(=O)N[C@@H](CCC(=O)O)C(=O)N[C@@H](CCCN)C(=O)N[C@H](C(=O)N[C@@H](CCC(=O)O)C(=O)N[C@@H](Cc1c[nH]c2ccccc12)C(=O)N[C@@H](CC(C)C)C(=O)N[C@@H](CCCNC(=N)N)C(=O)N[C@@H](CCCCN)C(=O)N[C@@H](CCCCN)C(=O)N[C@@H](CC(C)C)C(=O)N[C@@H](CCC(N)=O)C(=O)N[C@@H](CC(=O)O)C(=O)N[C@H](C(N)=O)C(C)C)C(C)C [Arg^20→Orn] (H-SVSEIQLMHNLGKHLNSME[Orn]VEWLRKKLQDV-NH2; N-terminus assumed)	5.53	–	–
AVSEIQLMHNLGKHLNSMRRVEWLRKELQDV-NH2 [Lys^27→Glu]	–	–	IC50 [2]: 1.27 µM

Further lines, with some results ahead:

IC50 [1] [µM]	reduction (alteration) of binding affinity for PTHR-delNt relative to parent peptide (COS-7 membranes)	Compound	further results
10.3	–	SVSEIQLMHNLGKHLNSMEQVEWLRKKLQDV-NH2 [Arg^20→Gln]	–
–	about four-fold	AVSEIQLMHNLGKHLNSMRRVEWLEKKLQDV-NH2 [Arg^25→Glu]	IC50 [2]: 1.63 µM
–	three-fold or less	CC[C@H](C)[C@H](NC(=O)[C@H](CCC(=O)O)NC(=O)[C@H](CO)NC(=O)[C@@H](NC(=O)[C@H](C)N)C(C)C)C(=O)N[C@@H](CCC(N)=O)C(=O)N[C@@H](CC(C)C)C(=O)N[C@@H](CCSC)C(=O)N[C@@H](Cc1c[nH]cn1)C(=O)N[C@@H](CC(N)=O)C(=O)N[C@@H](CC(C)C)C(=O)NCC(=O)N[C@@H](CCCCN)C(=O)N[C@@H](Cc1c[nH]cn1)C(=O)N[C@@H](CC(C)C)C(=O)N[C@@H](CC(N)=O)C(=O)N[C@@H](CO)C(=O)N[C@@H](CCSC)C(=O)N[C@@H](CCCNC(=N)N)C(=O)N[C@@H](CC1CCCCC1)C(=O)N[C@H](C(=O)N[C@@H](CCC(=O)O)C(=O)N[C@@H](Cc1c[nH]c2ccccc12)C(=O)N[C@@H](CC(C)C)C(=O)N[C@@H](CCCNC(=N)N)C(=O)N[C@@H](CCCCN)C(=O)N[C@@H](CCCCN)C(=O)N[C@@H](CC(C)C)C(=O)N[C@@H](CCC(N)=O)C(=O)N[C@@H](CC(=O)O)C(=O)N[C@H](C(N)=O)C(C)C)C(C)C [Arg^20→Cha, AlaValSerGluIleGlnLeuMetHisAsnLeuGlyLysHisLeuAsnSerMetArgChaValGluTrpLeuArgLysLysLeuGlnAspVal] (H-AVSEIQLMHNLGKHLNSMR[Cha]VEWLRKKLQDV-NH2; N-terminus assumed)	IC50 [2]: 0.632 ± 0.079 µM
7.18	–	SVSEIQLMHNLGKHLNSMERVEWLAKKLQDV-NH2 [Arg^25→Ala]	–
–	50 fold and 90 fold	AVSEIQLMHNLGKHLNSMERVEWLRKKLQDV-NH2 [Arg^19→Glu]	–
7.36	only two-fold	SVSEIQLMHNLGKHLNSMERVEALRKKLQDV-NH2 [Trp^23→Ala]	–
4.91	–	SVSEIQLMHNLGKHLNSMERVEWLRKKLQDA-NH2 [Val^31→Ala]	–
3.46	–	SVSEIQLMHNLGKHLNSMERVEWLRKKAQDV-NH2 [Leu^28→Ala]	–
6.21	–	SVSEIQLMHNLGKHLNSMERVEWLRAKLQDV-NH2 [Lys^26→Ala]	–
5.86	–	SVSEIQLMHNLGKHLNSMERVAWLRKKLQDV-NH2 [Glu^22→Ala]	–
5.74	–	Arg^20→Apa: hPTH(1-31)NH2 analog with Arg^20 replaced by (S)-2-amino-4[(2-amino)pyrimidinyl]methylalanine (Apa) (SVSEIQLMHNLGKHLNSME[Apa]VEWLRKKLQDV-NH2)	–
